PMC9919513, “A Practical Approach to Bicyclic Carbamoyl Pyridones with Application to the Synthesis of HIV-1 Integrase Strand Transfer Inhibitors” (Molecules, 2023)
Read-outs that look alike come from different tables or passages of the source.

Legend:
[1] = test system: HIV-1 vectors that carry WT IN; experiment: Single-round HIV-1 replication antiviral assay, wild-type IN; assay type: cell-based; details: for EC50: Human immunodeficiency virus 1, HOS, 48 h, read-out: EC50, antiviral potency, WT IN, VSV-g-pseudotyped HIV-1 luciferase vector with WT IN, HOS cells, 48 h
Procedure: The bicyclic metal chelating carbamoyl pyridone moiety is common to second-generation tricyclic INSTIs (3, 4, and 5, Figure 1). Analogs of the current study are simplified analogs that lack a third ring. […] The halogen substitution pattern of the benzylamide moiety can affect inhibitory potencies of INSTIs. We determined the antiviral potencies of our compounds in single round HIV-1 replication assays using viral constructs with wild-type IN [31]. Cytotoxicities were determined as previously described. […] In general, the potencies of bicyclic analogs 6 having an unsaturated bond at the C4 position were insensitive to differences in N-methyl substituents. […] Analogs 6g and 6h represent simplified analogs of DTG (3) and CAB (5), respectively, in which the third ring (C-ring) is opened and having doble bond in B-ring, but lacking α-methyl stereochemistry.
Human embryonic kidney cell culture cell line 293 was acquired from the American Type Culture Collection (ATCC). The human osteosarcoma cell line, HOS, was obtained from Dr. Richard Schwartz (Michigan State University, East Lansing, MI, USA) and grown in Dulbecco’s modified Eagle’s medium (Invitrogen, Carlsbad, CA, USA) supplemented with 5% (v/v) fetal bovine serum, 5% newborn calf serum, and penicillin (50 units/mL) plus streptomycin (50 µg/mL; Quality Biological, Gaithersburg, MD, USA). The transfection vector, pNLNgoMIVR-ΔLUC was made from pNLNgoMIVR-ΔEnv.HSA by removing the HSA reporter gene and replacing it with a luciferase reporter gene between the NotI and XhoI restriction sites. To produce the new IN mutant S230N used in this study, the IN open reading frame was removed from pNLNgoMIVR-ΔENV.LUC by digestion with KpnI and SalI, and the resulting fragment was inserted between the KpnI and SalI sites of pBluescript KS+. Using that construct as the wild-type template, we prepared the following HIV-1 IN mutant S230N using the QuikChange II XL site-directed mutagenesis kit (Agilent Technologies, Santa Clara, CA, USA) protocol. The following sense oligonucleotides were used with matching cognate antisense oligonucleotides (not shown) (Integrated DNA Technologies, Coralville, IA, USA) in the mutagenesis: S230N 5′-[…]-3′. The DNA sequence of the IN mutant S230N construct was verified independently by DNA sequence determination. The mutated IN coding sequences from pBluescript KS+ were then subcloned into pNLNgoMIVR-ΔEnv.LUC (between the KpnI and SalI sites) to produce mutant HIV-1 constructs, which were also checked by DNA sequencing. […]. On the day prior to transfection, 293 cells were plated on 100 mm diameter dishes at a density of 1.5 × 10^6 cells per plate. Next, 293 cells were transfected with 16 µg of pNLNgoMIVR^-ΔLUC and 4 µg of pHCMV-g (obtained from Dr. Jane Burns, University of California, San Diego) using the calcium phosphate method. At approximately 6 h after the calcium phosphate precipitate was added, 293 cells were washed twice with phosphate-buffered saline (PBS) and incubated with fresh media for 48 h. The virus-containing supernatants were then harvested, clarified by low-speed centrifugation, filtrated, and diluted for preparation in antiviral infection assays. On the day prior to the screen, HOS cells were seeded in a 96-well luminescence cell culture plate at a density of 4000 cells in 100 µL per well. On the day of the screen for cellular cytotoxicity determination, cells were treated with compounds from a concentration range of 250 µM to 0.05 µM and then incubated at 37 °C for 48 h. On the day of the screen for antiviral activity infection assays, cells were treated with compounds from a concentration range of 5 µM to 0.0001 µM using 11 serial dilutions and then incubated at 37 °C for 3 h. After compound incorporation and activation in the cell, 100 µL of virus-stock (WT or mutant) diluted to achieve a luciferase signal between 0.2 and 1.5 Relative Luciferase Units (RLUs) was added to each well and further incubated at 37 °C for 48 h. […]

[2] = test system: HIV-1 vectors bearing the S230N IN mutant; details: single round infection assays, read-out: EC50 against the S230N IN mutant; cited from earlier work
[3] = in vitro; assay type: cell-based; details: human, HOS cells, 48 h; read-out: CC50, cytotoxic concentration resulting in 50% reduction in the level of ATP
Procedure: Human embryonic kidney cell culture cell line 293 was acquired from the American Type Culture Collection (ATCC). The human osteosarcoma cell line, HOS, was obtained from Dr. Richard Schwartz (Michigan State University, East Lansing, MI, USA) and grown in Dulbecco’s modified Eagle’s medium (Invitrogen, Carlsbad, CA, USA) supplemented with 5% (v/v) fetal bovine serum, 5% newborn calf serum, and penicillin (50 units/mL) plus streptomycin (50 µg/mL; Quality Biological, Gaithersburg, MD, USA). The transfection vector, pNLNgoMIVR-ΔLUC was made from pNLNgoMIVR-ΔEnv.HSA by removing the HSA reporter gene and replacing it with a luciferase reporter gene between the NotI and XhoI restriction sites. To produce the new IN mutant S230N used in this study, the IN open reading frame was removed from pNLNgoMIVR-ΔENV.LUC by digestion with KpnI and SalI, and the resulting fragment was inserted between the KpnI and SalI sites of pBluescript KS+. Using that construct as the wild-type template, we prepared the following HIV-1 IN mutant S230N using the QuikChange II XL site-directed mutagenesis kit (Agilent Technologies, Santa Clara, CA, USA) protocol. The following sense oligonucleotides were used with matching cognate antisense oligonucleotides (not shown) (Integrated DNA Technologies, Coralville, IA, USA) in the mutagenesis: S230N 5′-[…]-3′. The DNA sequence of the IN mutant S230N construct was verified independently by DNA sequence determination. The mutated IN coding sequences from pBluescript KS+ were then subcloned into pNLNgoMIVR-ΔEnv.LUC (between the KpnI and SalI sites) to produce mutant HIV-1 constructs, which were also checked by DNA sequencing. […]. On the day prior to transfection, 293 cells were plated on 100 mm diameter dishes at a density of 1.5 × 10^6 cells per plate. Next, 293 cells were transfected with 16 µg of pNLNgoMIVR^-ΔLUC and 4 µg of pHCMV-g (obtained from Dr. Jane Burns, University of California, San Diego) using the calcium phosphate method. At approximately 6 h after the calcium phosphate precipitate was added, 293 cells were washed twice with phosphate-buffered saline (PBS) and incubated with fresh media for 48 h. The virus-containing supernatants were then harvested, clarified by low-speed centrifugation, filtrated, and diluted for preparation in antiviral infection assays. On the day prior to the screen, HOS cells were seeded in a 96-well luminescence cell culture plate at a density of 4000 cells in 100 µL per well. On the day of the screen for cellular cytotoxicity determination, cells were treated with compounds from a concentration range of 250 µM to 0.05 µM and then incubated at 37 °C for 48 h. On the day of the screen for antiviral activity infection assays, cells were treated with compounds from a concentration range of 5 µM to 0.0001 µM using 11 serial dilutions and then incubated at 37 °C for 3 h. After compound incorporation and activation in the cell, 100 µL of virus-stock (WT or mutant) diluted to achieve a luciferase signal between 0.2 and 1.5 Relative Luciferase Units (RLUs) was added to each well and further incubated at 37 °C for 48 h. Cellular cytotoxicity was measured by using the ATP Lite Luminescence detection system and monitored by adding 50 µL of cell lysis buffer from the Luminescence ATP detection assay to each well followed by mixing at 700 rpm at room temperature for 5 min using a compact thermomixer. After addition of 50 µL of reconstituted Luminescence ATP detection assay reagent to all wells except for the negative control/background wells, the plates were mixed at 700 rpm at room temperature for 5 min using a compact thermomixer, incubated at room temperature for 20 min to allow time for signal development, and finally, cytotoxicity was determined using the microplate reader. Infectivity was measured by using the Steady-lite plus luminescence reporter gene assay system (PerkinElmer, Waltham, MA, USA). […]

[4] = test system: HIV-1 vectors bearing the S230N IN mutant; experiment: Single-round HIV-1 replication antiviral assay, S230N IN mutant; assay type: cell-based
Text: To further evaluate the antiviral activities of select compounds, we determined their EC50 values against the IN mutant S230N, which has been selected in vitro against an early Merck INSTI L810,830, a prototype for naphthyridine analogs.
Human embryonic kidney cell culture cell line 293 was acquired from the American Type Culture Collection (ATCC). The human osteosarcoma cell line, HOS, was obtained from Dr. Richard Schwartz (Michigan State University, East Lansing, MI, USA) and grown in Dulbecco’s modified Eagle’s medium (Invitrogen, Carlsbad, CA, USA) supplemented with 5% (v/v) fetal bovine serum, 5% newborn calf serum, and penicillin (50 units/mL) plus streptomycin (50 µg/mL; Quality Biological, Gaithersburg, MD, USA). The transfection vector, pNLNgoMIVR-ΔLUC was made from pNLNgoMIVR-ΔEnv.HSA by removing the HSA reporter gene and replacing it with a luciferase reporter gene between the NotI and XhoI restriction sites. To produce the new IN mutant S230N used in this study, the IN open reading frame was removed from pNLNgoMIVR-ΔENV.LUC by digestion with KpnI and SalI, and the resulting fragment was inserted between the KpnI and SalI sites of pBluescript KS+. Using that construct as the wild-type template, we prepared the following HIV-1 IN mutant S230N using the QuikChange II XL site-directed mutagenesis kit (Agilent Technologies, Santa Clara, CA, USA) protocol. The following sense oligonucleotides were used with matching cognate antisense oligonucleotides (not shown) (Integrated DNA Technologies, Coralville, IA, USA) in the mutagenesis: S230N 5′-[…]-3′. The DNA sequence of the IN mutant S230N construct was verified independently by DNA sequence determination. The mutated IN coding sequences from pBluescript KS+ were then subcloned into pNLNgoMIVR-ΔEnv.LUC (between the KpnI and SalI sites) to produce mutant HIV-1 constructs, which were also checked by DNA sequencing. […]. On the day prior to transfection, 293 cells were plated on 100 mm diameter dishes at a density of 1.5 × 10^6 cells per plate. Next, 293 cells were transfected with 16 µg of pNLNgoMIVR^-ΔLUC and 4 µg of pHCMV-g (obtained from Dr. Jane Burns, University of California, San Diego) using the calcium phosphate method. At approximately 6 h after the calcium phosphate precipitate was added, 293 cells were washed twice with phosphate-buffered saline (PBS) and incubated with fresh media for 48 h. The virus-containing supernatants were then harvested, clarified by low-speed centrifugation, filtrated, and diluted for preparation in antiviral infection assays. On the day prior to the screen, HOS cells were seeded in a 96-well luminescence cell culture plate at a density of 4000 cells in 100 µL per well. On the day of the screen for cellular cytotoxicity determination, cells were treated with compounds from a concentration range of 250 µM to 0.05 µM and then incubated at 37 °C for 48 h. On the day of the screen for antiviral activity infection assays, cells were treated with compounds from a concentration range of 5 µM to 0.0001 µM using 11 serial dilutions and then incubated at 37 °C for 3 h. After compound incorporation and activation in the cell, 100 µL of virus-stock (WT or mutant) diluted to achieve a luciferase signal between 0.2 and 1.5 Relative Luciferase Units (RLUs) was added to each well and further incubated at 37 °C for 48 h. Cellular cytotoxicity was measured by using the ATP Lite Luminescence detection system and monitored by adding 50 µL of cell lysis buffer from the Luminescence ATP detection assay to each well followed by mixing at 700 rpm at room temperature for 5 min using a compact thermomixer. […]

For `C[C@@H]1CCO[C@H]2Cn3cc(C(=O)NCc4ccc(F)cc4F)c(=O)c(O)c3C(=O)N12` [DTG, Dolutegravir, reference compound], the EC50 [1] is listed as roughly 2 nM and the EC50 [2] is listed as 7.9 ± 1.3 nM.

For `CC(C)CC(C)n1ccn2cc(C(=O)NCc3ccc(F)cc3F)c(=O)c(O)c2c1=O` (stereo not shown) [Compound 6i, N-(2,4-Difluorobenzyl)-9-hydroxy-2-(4-methylpentan-2-yl)-1,8-dioxo-1,8-dihydro-2H-pyrido [1,2-a]pyrazine-7-carboxamide], the melting point was 199 to 203 °C, the EC50 [1] was 4.2 ± 1 nM and the CC50 [3] was greater than 250 µM.

For `O=C(NCc1ccc(F)cc1F)c1cn2c(c(O)c1=O)C(=O)N(CCCCCO)CC2` [Compound 7d, N-(2,4-Difluorobenzyl)-9-hydroxy-2-(5-hydroxypentyl)-1,8-dioxo-1,3,4,8-tetrahydro-2H-pyrido [1,2-a]pyrazine-7-carboxamide], the melting point was 201 to 207 °C, the “Ratio of the antiviral potencies after and before hydrogenation (WT)” value ([1]; EC50 of saturated 7 over EC50 of unsaturated 6, WT IN) was 5.0 and the EC50 [1] was 54.5 ± 3 nM. For the same compound, the “Ratio of the antiviral potencies after and before hydrogenation (S230N)” value ([4]; EC50 of saturated 7 over EC50 of unsaturated 6, S230N IN) was 6.29 and the EC50 ([4]; Human immunodeficiency virus 1, HOS, 48 h, read-out: EC50, antiviral potency, S230N IN mutant) was 97 nM.
